As usually defined, the EC50 is the concentration needed to bring the measured effect to its halfway point.

Some results are limits rather than exact numbers.

T1 sequence (Q14416 19-872): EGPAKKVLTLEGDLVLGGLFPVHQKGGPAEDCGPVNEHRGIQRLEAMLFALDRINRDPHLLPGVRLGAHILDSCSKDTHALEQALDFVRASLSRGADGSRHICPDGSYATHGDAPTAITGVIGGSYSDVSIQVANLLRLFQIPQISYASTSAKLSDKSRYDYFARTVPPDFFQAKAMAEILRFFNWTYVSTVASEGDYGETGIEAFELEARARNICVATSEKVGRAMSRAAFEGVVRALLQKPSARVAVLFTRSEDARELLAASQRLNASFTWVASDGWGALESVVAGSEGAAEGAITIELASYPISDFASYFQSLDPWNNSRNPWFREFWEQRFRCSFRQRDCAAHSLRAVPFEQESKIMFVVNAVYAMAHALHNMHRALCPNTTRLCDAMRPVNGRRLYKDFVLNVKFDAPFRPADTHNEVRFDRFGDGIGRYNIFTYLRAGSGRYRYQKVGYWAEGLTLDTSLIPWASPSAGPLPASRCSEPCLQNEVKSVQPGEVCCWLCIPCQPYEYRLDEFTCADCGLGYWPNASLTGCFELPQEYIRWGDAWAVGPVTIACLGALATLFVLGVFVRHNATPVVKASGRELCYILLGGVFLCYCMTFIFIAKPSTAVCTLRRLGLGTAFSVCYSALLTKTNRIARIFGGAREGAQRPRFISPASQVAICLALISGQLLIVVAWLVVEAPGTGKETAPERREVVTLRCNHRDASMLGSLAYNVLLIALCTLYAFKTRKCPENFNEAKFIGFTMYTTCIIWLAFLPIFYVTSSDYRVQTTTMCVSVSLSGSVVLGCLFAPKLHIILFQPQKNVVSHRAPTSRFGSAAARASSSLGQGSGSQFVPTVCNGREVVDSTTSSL

The assay addresses T1, human mGlu2 receptor (Homo sapiens, UniProt Q14416).
T1 construct: V5/His (named only as part of the vector); expressed in transfected cells; host or cells: HEK293
The experiment in a line: FLIPR intracellular Ca2+ assay, potentiation of 1 μM glutamate in HEK293 cells expressing hmGlu2, rGLAST and Galpha16. The assay is classed as cell-based. As to conditions: HEK293 hmGlu2 clone. The text has this:
The compounds of the present invention can be tested e.g. by evaluating intracellular Ca^2+ concentrations in cells permanently expressing human mGlu receptor, the rat glutamate transporter rGLAST and the Galpha16 subunit of the G-protein complex under standard conditions in a fluorometric imaging plate reader (FLIPR, Molecular Devices, Union City, Calif. 94587, USA) by measuring the response of the cells to a test compound in the absence of presence of glutamate. The FLIPR assay is a common functional assay to monitor native or recombinant Galphaq-coupled receptors, and native or recombinant receptors normally linked to other G-protein signalling cascades, which are coupled to calcium through co-expression of an alpha subunit of a promiscuous or chimeric G-protein. In the assay the increase of intracellular calcium is measured through a calcium-dependent fluorescent dye (e.g. Fluo-4 AM) in the FLIPR instrument.
For the purpose of the present study, a cell line permanently expressing a human mGlu receptor, such as the mGlu2 receptor, the rat glutamate transporter rGLAST and the GalphaG16 may be generated by transfection as described in the examples. For selection of a suitable cell clone and also the subsequent measurements, the selected clone the cells will be plated on suitable multiwell plates in a suitable medium (e.g. DMEM Glutamax (GIBCO # 21885-025)/10% dialyzed FCS). Cells may be selected by gentamycin treatment as described in the examples. Cells will then be loaded with a suitable Ca^2+ sensitive fluorescence dye, e.g. with 2 μM Fluo-4 AM (Molecular Probes, F14201). Cells will then be washed with a suitable buffer (e.g. HEPES) and the thus treated plates will be measured in a fluorometric imaging plate reader (e.g. FLIPR, Molecular Devices, Union City, Calif. 94587, USA).
The compounds of the present invention were tested in the above-described FLIPR assay using the selected cell clone. Increased intracellular calcium levels were quantified following addition of test compound (agonism), as well as following addition of a submaximal concentration of glutamate (potentiation).
For the determination of the effect of the test compound by itself (agonism) or by increasing the response to a submaximal concentration (e.g. 1 μM) of glutamate (potentiation), the resulting signal is determined by subtraction of the background fluorescence from the maximal fluorescent peak height of the respective response. In the FLIPR instrument the compound is given to the cell and its fluorescence response quantified by the FLIPR instrument (agonism). The concentration at which the compound exerts half its maximal effect is named the ‘effective concentration 50’ or ‘EC50’. The maximal effect induced by the test substance is normalized to the maximal effect exerted by 100 μM glutamate (set at 100%).
After addition of the test compound to the plate, a submaximal concentration of glutamate (e.g. 1 μM glutamate) will be added. A potentiator enhances the response of the receptor to glutamate. The response to glutamate in the presence of test compound is quantified. The concentration at which the test compound is able to exert half its maximal potentiation effect to glutamate is named the ‘EC50’. The maximal response to the submaximal concentration of glutamate (e.g. 1 micromolar glutamate) in the presence of test compound is normalized to the maximal effect exerted by 100 micromolar glutamate (set at 100%). Least squares curve fitting with a four-parameter equation is then applied to the resulting dose-response curve to determine the resulting EC50 values (Graph Pad Prism).
For the purpose of the present study, a cell line permanently expressing the human mGlu2 receptor, the rat glutamate transporter rGLAST and the alpha subunit of G16 was generated by transfection. […]
Turning to `CCCCN1Cc2cc(OCc3c(-c4ccccc4)cc(C)nc3C)ccc2C1=O` [Example 1, 2-butyl-5-((2,6-dimethyl-4-phenylpyridin-3-yl)methoxy)isoindolin-1-one], the EC50 was < 500 nM.
In the case of `Cc1cc(-c2ccccc2)c(COc2ccc3c(c2)CN(CCOC(F)(F)F)C3=O)c(C)n1` [Example 2, 5-((2,6-dimethyl-4-phenylpyridin-3-yl)methoxy)-2-(2-(trifluoromethoxy)ethyl)isoindolin-1-one], the EC50 is < 500 nM.
As for `CCCN1Cc2cc(OCc3cnccc3Oc3ccccc3)ccc2C1=O` [Example 3, 5-((4-phenoxypyridin-3-yl)methoxy)-2-propylisoindolin-1-one], the EC50 lay within 500 to 2000 nM.
With `CCCCN1Cc2cc(OCc3c(-c4ccccc4)ccnc3Cl)ccc2C1=O` [Example 4, 2-butyl-5-((2-chloro-4-phenylpyridin-3-yl)methoxy)isoindolin-1-one], the EC50 is < 500 nM.
For `CCCCN1Cc2cc(OCc3c(I)ccnc3Cl)ccc2C1=O` [Example 5, 2-butyl-5-((2-chloro-4-iodopyridin-3-yl)methoxy)isoindolin-1-one] the value was < 500 nM; for `CCCN1Cc2cc(OCc3cnccc3-c3ccccc3)ccc2C1=O` [Example 6, 5-(4-Phenyl-pyridin-3-ylmethoxy)-2-propyl-2,3-dihydro-isoindol-1-one], < 500 nM.
On to `O=C1c2ccc(OCc3cnccc3-c3ccccc3)cc2CN1CCOC(F)(F)F` [Example 7, 5-(4-Phenyl-pyridin-3-ylmethoxy)-2-(2-trifluoromethoxy-ethyl)-2,3-dihydro-isoindol-1-one], for which the EC50 is < 500 nM.
For `CCCN1Cc2cc(OCc3cnccc3NC(=O)OC(C)(C)C)ccc2C1=O` [Example 8, [3-(1-oxo-2-propyl-2,3-dihydro-1H-isoindol-5-yloxymethyl)-pyridin-4-yl]-carbamic acid tert-butyl ester] the value was 2000 to 10000 nM.
Turning to `CCN1Cc2cc(OCc3c(-c4ccccc4)cc(C)nc3C)ccc2C1=O` [Example 11, 5-(2,6-Dimethyl-4-phenyl-pyridin-3-ylmethoxy)-2-ethyl-2,3-dihydroisoindol-1-one], the EC50 was < 500 nM.
For `CCCCN1Cc2cc(NCc3c(-c4ccccc4)cc(C)nc3C)ccc2C1=O` [Example 13, 2-butyl-5-((2,6-dimethyl-4-phenylpyridin-3-yl)methylamino)isoindolin-1-one] the value was < 500 nM; for `CCCCN1Cc2cc(NCc3cnccc3C(F)(F)F)ccc2C1=O` [Example 14, 2-butyl-5-((4-(trifluoromethyl)pyridin-3-yl)methylamino)isoindolin-1-one], < 500 nM; for `CCCCN1Cc2cc(NCc3cnccc3-c3ccccc3)ccc2C1=O` [Example 15, 2-butyl-5-((4-phenylpyridin-3-yl)methylamino)isoindolin-1-one], < 500 nM.
Take `CCCCN1Cc2cc(NCc3cnccc3Oc3ccccc3)ccc2C1=O` [Example 16, 2-butyl-5-((4-phenoxypyridin-3-yl)methylamino)isoindolin-1-one]: the EC50 is < 500 nM.
For `CCCCN1Cc2cc(NCc3c(C(F)(F)F)ccnc3Cl)ccc2C1=O` [Example 17, 2-butyl-5-((2-chloro-4-(trifluoromethyl)pyridin-3-yl)methylamino)-isoindolin-1-one] the value was < 500 nM; for `CCCCN1Cc2cc(NCc3cnccc3Nc3ccccc3)ccc2C1=O` [Example 19, 2-butyl-5-((4-(phenylamino)pyridin-3-yl)methylamino)isoindolin-1-one], 500 to 2000 nM.
For `CCCCN1Cc2cc(NCc3cnccc3-c3ccc(C#N)cc3)ccc2C1=O` [Example 20, 4-(3-((2-butyl-1-oxoisoindolin-5-ylamino)methyl)pyridin-4-yl)benzonitrile] the value was < 500 nM; for `CCCCN1Cc2cc(NCc3cnccc3-c3ccc(C(F)(F)F)cc3)ccc2C1=O` [Example 21, 2-butyl-5-((4-(4-(trifluoromethyl)phenyl)pyridin-3-yl)methylamino)-isoindolin-1-one], < 500 nM; for `CCCCN1Cc2cc(NCc3cccnc3)ccc2C1=O` [Example 22, 2-butyl-5-[(pyridin-3-ylmethyl)amino]-2,3-dihydro-1H-isoindol-1-one], 2000 to 10000 nM.
For `Cc1cc(-c2ccccc2)c(CNc2cc(Cl)c3c(c2)CN(C2CC2)C3=O)c(C)n1` [Example 23, 7-chloro-2-cyclopropyl-5-{[(2,6-dimethyl-4-phenylpyridin-3-yl)methyl]amino}-2,3-dihydro-1H-isoindol-1-one] the value was < 500 nM; for `O=C1c2c(Cl)cc(NCc3c(C(F)(F)F)ccnc3Cl)cc2CN1C1CC1` [Example 24, 7-chloro-5-({[2-chloro-4-(trifluoromethyl)pyridin-3-yl]methyl}amino)-2-cyclopropyl-2,3-dihydro-1H-isoindol-1-one], < 500 nM.
In the case of `CCCCN1Cc2cc(NCc3cnccc3N3CCOCC3)ccc2C1=O` [Example 25, 2-butyl-5-({[4-(morpholin-4-yl)pyridin-3-yl]methyl}amino)-2,3-dihydro-1H-isoindol-1-one], the EC50 lay within 500 to 2000 nM.
On to `CCCCN1Cc2cc(NCc3cnccc3N3CCN(C)CC3)ccc2C1=O` [Example 26, 2-butyl-5-({[4-(4-methylpiperazin-1-yl)pyridin-3-yl]methyl}amino)-2,3-dihydro-1H-isoindol-1-one], for which the EC50 fell in the range of 2000 to 10000 nM.
On to `CCCCN1Cc2cc(NCc3c(C)ccnc3Cl)ccc2C1=O` [Example 33, 2-butyl-5-{[(2-chloro-4-methylpyridin-3-yl)methyl]amino}-2,3-dihydro-1H-isoindol-1-one], for which the EC50 is 500 to 2000 nM.
For `CCCCN1Cc2cc(NCc3ccc(Br)nc3Cl)ccc2C1=O` [Example 34, 5-{[(6-bromo-2-chloropyridin-3-yl)methyl]amino}-2-butyl-2,3-dihydro-1H-isoindol-1-one], the EC50 lay in the range of 500 to 2000 nM.
As for `CCCCN1Cc2cc(NCc3c(Cl)ccnc3Cl)ccc2C1=O` [Example 35, 2-butyl-5-{[(2,4-dichloropyridin-3-yl)methyl]amino}-2,3-dihydro-1H-isoindol-1-one], the EC50 was < 500 nM.
The result for `CCCCN1Cc2cc(NCc3ccc(Cl)nc3OC)ccc2C1=O` [Example 36, 2-butyl-5-{[(6-chloro-2-methoxypyridin-3-yl)methyl]amino}-2,3-dihydro-1H-isoindol-1-one] reads 500 to 2000 nM; that for `CCCCN1Cc2cc(NCc3ccc(OC)nc3Cl)ccc2C1=O` [Example 37, 2-butyl-5-{[(2-chloro-6-methoxypyridin-3-yl)methyl]amino}-2,3-dihydro-1H-isoindol-1-one], 500 to 2000 nM.
For `CCCCN1Cc2cc(NCc3cccnc3Cl)ccc2C1=O` [Example 38, 2-butyl-5-{[(2-chloropyridin-3-yl)methyl]amino}-2,3-dihydro-1H-isoindol-1-one], the EC50 fell in the range of 2000 to 10000 nM.
For `COCCN1Cc2cc(NCc3c(C(F)(F)F)ccnc3Cl)cc(C)c2C1=O` [Example 39] the value was 500 to 2000 nM; for `CCCCN1Cc2cc(NCc3cnccc3NCc3ccccc3)ccc2C1=O` [Example 42, 5-((4-(benzylamino)pyridin-3-yl)methylamino)-2-butylisoindolin-1-one], 2000 to 10000 nM; for `CCCCN1Cc2cc(NCc3cnccc3NC(=O)C(C)(C)C)ccc2C1=O` [Example 43, N-(3-((2-butyl-1-oxoisoindolin-5-ylamino)methyl)pyridin-4-yl)pivalamide], 500 to 2000 nM.
The result for `Cc1cc(-c2ccccc2)c(COc2ccc3c(c2)CN(CCOC(F)(F)F)C3=O)c(C)[n+]1[O-]` [Example 44, 2,6-dimethyl-3-((1-oxo-2-(2-(trifluoromethoxy)ethyl)-isoindolin-5-yloxy)-methyl)-4-phenylpyridine 1-oxide] reads < 500 nM.

These data come from US8664214B2, “Small molecule potentiators of metabotropic glutamate receptors I” (AbbVie Deutschland GmbH & Co. KG, priority 2010, dated 2014).
